Target: T1, AtTAT1 (Arabidopsis thaliana, UniProt Q9FN30)
T1 construct: gene At5g53970; pET28a construct of Wang et al. (2016), His-tagged, expressed in E. coli Rosetta-2 (DE3), HisTrap purified
T1 sequence (Q9FN30 1-414): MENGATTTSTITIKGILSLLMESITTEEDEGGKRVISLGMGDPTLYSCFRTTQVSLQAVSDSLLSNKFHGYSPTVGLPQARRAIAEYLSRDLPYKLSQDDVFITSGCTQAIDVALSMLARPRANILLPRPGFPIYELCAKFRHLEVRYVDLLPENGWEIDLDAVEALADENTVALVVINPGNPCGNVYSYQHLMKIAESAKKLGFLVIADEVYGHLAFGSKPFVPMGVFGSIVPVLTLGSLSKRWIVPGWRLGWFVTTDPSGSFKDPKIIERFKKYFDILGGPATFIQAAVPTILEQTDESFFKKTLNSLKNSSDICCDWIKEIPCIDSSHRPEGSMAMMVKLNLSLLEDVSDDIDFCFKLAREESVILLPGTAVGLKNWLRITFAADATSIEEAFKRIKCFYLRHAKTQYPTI
Assay: oxime tagging with NIMS mass spectrometry imaging
Type: biochemical
Details: 10 mM amino donor, 6 mM alpha-ketoglutarate, 0.5 mM PLP, 100 mM HEPES, final pH 7.6 to 8.0, 30 °C, 60 min

Row | SMILES | oxime tagging with NIMS mass spectrometry imaging
1 | N[C@@H](Cc1ccccc1)C(=O)O [phenylalanine] | AtTAT1 can use Tyr, histidine (His), leucine (Leu), methionine (Met), phenylalanine (Phe), and tryptophan (Trp)
2 | N[C@@H](Cc1ccc(O)cc1)C(=O)O [tyrosine] | AtTAT1 can use Tyr, histidine (His), leucine (Leu), methionine (Met), phenylalanine (Phe), and tryptophan (Trp)
